The target in assay [1] is T1, human TAS2R43 (Homo sapiens, UniProt P59537).
T1 sequence (P59537 1-309): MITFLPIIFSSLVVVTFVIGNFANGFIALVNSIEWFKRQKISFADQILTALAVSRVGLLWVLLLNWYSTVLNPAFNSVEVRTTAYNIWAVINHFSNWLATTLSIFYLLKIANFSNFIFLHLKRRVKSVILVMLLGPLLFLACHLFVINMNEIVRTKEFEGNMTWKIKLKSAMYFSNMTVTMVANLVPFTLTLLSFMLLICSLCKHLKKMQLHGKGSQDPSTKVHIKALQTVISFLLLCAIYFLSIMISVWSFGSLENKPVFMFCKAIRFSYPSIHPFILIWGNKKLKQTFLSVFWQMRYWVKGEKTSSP
As to the kind of experiment: Ca2+ flux assay, transiently transfected cells with Gα16-gust44. The following applies: for calcium flux response of human TAS2R43: PTC 100 μM, C4-HSL, aloin 300 μM, denatonium 1 mM, saccharin 6.7 mM; for Hill Slope TAS2R43 human: calcium flux dose response.

The target in assay [2] is cat Tas2r43 (Felis catus, UniProt A0ABI8A390). Described as above. The note with it: for calcium flux response of cat Tas2r43: PTC 100 μM, aloin 300 μM, denatonium 1 mM, saccharin 6.7 mM; for Hill Slope Tas2r43 cat: calcium flux dose response. (In general: A change in cytosolic calcium serves as a functional read-out for many receptors and channels.)
Assay [3] has as its target T1, human TAS2R43. The arrangement: created similarly, expressing full-length receptor under the control of a CMV promoter; expressed in transfected cells; host or cells: mammalian cells (ATCC CRL-11268), co-transfected with Gα16-gust44. The note with it: published value for human TAS2R43; cited from earlier work.
In assay [4] the target is T2, human TAS2R38 (Homo sapiens, UniProt P59533).
T2 sequence (P59533 1-333): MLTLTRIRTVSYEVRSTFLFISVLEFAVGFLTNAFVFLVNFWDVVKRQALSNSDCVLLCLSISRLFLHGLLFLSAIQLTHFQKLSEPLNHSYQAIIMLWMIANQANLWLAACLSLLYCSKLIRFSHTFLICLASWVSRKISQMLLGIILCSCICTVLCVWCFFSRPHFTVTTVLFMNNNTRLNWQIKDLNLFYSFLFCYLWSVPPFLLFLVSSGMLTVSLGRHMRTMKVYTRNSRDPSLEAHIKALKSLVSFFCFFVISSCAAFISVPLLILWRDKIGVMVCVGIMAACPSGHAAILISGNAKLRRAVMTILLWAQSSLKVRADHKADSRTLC
The experiment in a line: Ca2+ flux assay, transiently transfected cells with Gα16-gust44. The following applies: for calcium flux response of human TAS2R38: PTC 100 μM, PROP 30 μM, C4-HSL 200 μM; for Hill Slope TAS2R38 human: calcium flux dose response.

For assay [5], the target named is T2, human TAS2R38. The arrangement: created similarly, expressing full-length receptor under the control of a CMV promoter; expressed in transfected cells; host or cells: mammalian cells (ATCC CRL-11268), co-transfected with Gα16-gust44; method as in PMID 15723792. The following applies: published value for human TAS2R38; cited from earlier work.
In another assay the target is T3, human TAS2R31 (Homo sapiens, UniProt P59538).
T3 construct: expressed in transfected cells; host or cells: transiently transfected cells expressing the receptor and Gα16-gust44
T3 sequence (P59538 1-309): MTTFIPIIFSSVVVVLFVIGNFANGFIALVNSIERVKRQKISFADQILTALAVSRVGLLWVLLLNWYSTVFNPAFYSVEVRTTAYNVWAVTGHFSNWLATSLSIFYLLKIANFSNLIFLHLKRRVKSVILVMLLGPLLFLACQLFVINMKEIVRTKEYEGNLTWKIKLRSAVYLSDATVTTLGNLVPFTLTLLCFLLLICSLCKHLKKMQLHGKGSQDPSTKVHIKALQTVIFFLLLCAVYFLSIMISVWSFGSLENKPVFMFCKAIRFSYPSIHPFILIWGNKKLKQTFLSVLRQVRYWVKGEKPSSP
As to the kind of experiment: Ca2+ flux assay, probenecid specificity control. The class given is cell-based. The following applies: 1 mM probenecid, one hour pre-incubation.

For the next assay, the target named is T4, cat Tas2r38 (Felis catus, UniProt Z9BUK5U3L3).
T4 sequence (Z9BUK5U3L3 1-334): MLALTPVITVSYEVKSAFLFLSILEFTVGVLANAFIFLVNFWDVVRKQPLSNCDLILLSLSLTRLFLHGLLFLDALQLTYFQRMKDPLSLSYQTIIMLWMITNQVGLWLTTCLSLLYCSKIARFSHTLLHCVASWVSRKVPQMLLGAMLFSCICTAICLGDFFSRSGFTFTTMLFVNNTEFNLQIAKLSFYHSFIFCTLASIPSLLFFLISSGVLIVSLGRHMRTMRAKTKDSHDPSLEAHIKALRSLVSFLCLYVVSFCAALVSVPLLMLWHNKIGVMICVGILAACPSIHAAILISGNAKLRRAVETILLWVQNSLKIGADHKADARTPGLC
As to the kind of experiment: Ca2+ flux assay, transiently transfected cells with Gα16-gust44. The following applies: for calcium flux response of cat Tas2r38: PTC 100 μM, PROP 30 μM, C4-HSL 200 μM.

Assay [6] concerns cat Tas2r43. Described as above. The note with it: PTC 100 μM, aloin 300 μM, denatonium 1 mM, saccharin 6.7 mM.
The next assay deals with T5, human TAS2R16 (Homo sapiens, UniProt Q9NYV7).
T5 sequence (Q9NYV7 1-291): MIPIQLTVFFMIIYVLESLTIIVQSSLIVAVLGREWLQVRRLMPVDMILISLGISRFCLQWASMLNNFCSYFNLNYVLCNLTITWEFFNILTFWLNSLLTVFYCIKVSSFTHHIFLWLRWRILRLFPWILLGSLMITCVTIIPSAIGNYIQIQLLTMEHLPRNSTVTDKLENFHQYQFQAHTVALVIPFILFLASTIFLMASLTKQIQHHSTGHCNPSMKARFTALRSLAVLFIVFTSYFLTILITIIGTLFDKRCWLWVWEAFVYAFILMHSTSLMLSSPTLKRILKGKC
The experiment in a line: Ca2+ flux assay, negative control receptor. The following applies: PTC 100 μM, C4-HSL.

The mark [7] stands for this setting: 1 mM probenecid, one hour pre-incubation, 33 μM PTC.
The mark [8] stands for this setting: 1 mM probenecid, one hour pre-incubation, 300 μM aloin.
Setting [9] is: 1 mM probenecid, one hour pre-incubation, 1 mM denatonium.

Entries after “also recorded” stand apart in the source; their conditions may differ. Where a name gives a salt, the structure may show the parent alone. Read-outs that look alike come from different tables or passages of the source.

Sequence of cat Tas2r43 (Felis catus, UniProt A0ABI8A390) (A0ABI8A390 entry or part of it): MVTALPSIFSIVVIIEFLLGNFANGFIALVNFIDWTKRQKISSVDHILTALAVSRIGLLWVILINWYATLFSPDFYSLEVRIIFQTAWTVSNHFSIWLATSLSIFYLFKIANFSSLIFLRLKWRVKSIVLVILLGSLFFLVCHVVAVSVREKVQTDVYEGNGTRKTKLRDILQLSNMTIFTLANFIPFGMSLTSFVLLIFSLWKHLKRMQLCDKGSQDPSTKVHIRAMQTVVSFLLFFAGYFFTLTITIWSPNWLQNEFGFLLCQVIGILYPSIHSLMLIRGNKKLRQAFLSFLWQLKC

Broadly, the EC50 is the concentration that produces a half-maximal response. Regarding `CC[N+](CC)(CC(=O)Nc1c(C)cccc1C)Cc1ccccc1` [Denatonium, denatonium benzoate], on human TAS2R43 [1], the midpoint of the response, the EC50, lay at 1210 µM; the “calcium flux response of human TAS2R43” value is “responded”; the “Hill Slope TAS2R43 human” value came to 1.3. Besides, on cat Tas2r43 [2], the “calcium flux response of cat Tas2r43” value was “responded” and the “Hill Slope Tas2r43 cat” value is 1.7. In addition, on cat Tas2r43 [2] (from EC50 values), the “fold lower EC50, cat Tas2r43 vs human TAS2R43” value is “greater than 5 fold”. Besides, the EC50 at human TAS2R43 [3] is 300 µM.

Regarding `CCCc1cc(=O)[nH]c(=S)[nH]1` [PROP, 6-propyl-2-thiouracil], on human TAS2R38 [4], the EC50 was found to be 2.2 µM, the “calcium flux response of human TAS2R38” value is recorded as “responded” and the “Hill Slope TAS2R38 human” value was found to be 1.59. For the same molecule, the EC50 on human TAS2R38 [5] was 2.1 µM.

For the molecule `CCCN(CCC)S(=O)(=O)c1ccc(C(=O)O)cc1` [probenecid], at human TAS2R31, the “probenecid effect on human TAS2R31 response to saccharin” value is “stimulation of flux”. The “probenecid effect on human TAS2R38 response to PTC” value at human TAS2R38 [4] (setting [7]) is given as “failed to induce a calcium flux; also recorded: inhibited completely”. The “probenecid effect on cat Tas2r38 response to PTC” value at cat Tas2r38 (setting [7]) is on record as “failed to induce a calcium flux; also recorded: inhibited completely”. For the same molecule, the “probenecid effect on human TAS2R43 response to aloin” value at human TAS2R43 [1] (setting [8]) is “inhibited”. Besides, the “probenecid effect on human TAS2R43 response to denatonium” value at human TAS2R43 [1] (setting [9]) was “inhibited”. Also, on cat Tas2r43 [2] (setting [8]), the “probenecid effect on cat Tas2r43 response to aloin” value was “inhibited”. Also, the “probenecid effect on cat Tas2r43 response to denatonium” value on cat Tas2r43 [2] (setting [9]) was “inhibited”.

In the case of `O=C1NS(=O)(=O)c2ccccc21` [Saccharin, saccharin sodium salt hydrate], in the assay with cat Tas2r43 [6], the “calcium flux response of cat Tas2r43” value is reported as “did not elicit a response”.

In the case of `NC(=S)Nc1ccccc1` [PTC, phenylthiocarbamide], at human TAS2R16, the “calcium flux response of human TAS2R16” value was “did not respond”. Moreover, the EC50 at human TAS2R38 [4] was 2.3 µM; with cat Tas2r38 (read-out: EC50 Tas2r38 cat, calcium flux dose response, 22 h post-transfection) it was 47 µM; on human TAS2R38 [5] it was 1.1 µM. Also, on human TAS2R38 [4], the “calcium flux response of human TAS2R38” value was “strong calcium flux”. Besides, the figures for the “peak fluorescence over baseline” value on human TAS2R38 [4] (PTC at 100 μM) and on cat Tas2r38 (PTC at 100 μM) were 27% and 40%, respectively. For the same molecule, at human TAS2R38 [4], the “Hill Slope TAS2R38 human” value is reported as 1.0. Further, on cat Tas2r38, the “calcium flux response of cat Tas2r38” value was “strong calcium flux”. The “Hill Slope Tas2r38 cat” value on cat Tas2r38 (calcium flux dose response) is listed as 2.6. Further, on cat Tas2r38 (from EC50 values), the “fold less concentration sensitive, cat Tas2r38 vs human TAS2R38” value is “at least 10 fold”. The “calcium flux response of human TAS2R43” value on human TAS2R43 [1] is given as “did not respond”. Besides, the “calcium flux response of cat Tas2r43” value with cat Tas2r43 [6] is reported as “did not respond”.

As to `O=C1c2c(O)cccc2C([C@@H]2O[C@H](CO)[C@@H](O)[C@H](O)[C@H]2O)c2cc(CO)cc(O)c21` (stereo partly shown) [Aloin, aloin], at human TAS2R43 [1], the 50% effective concentration (EC50) stood at 35 µM, the “calcium flux response of human TAS2R43” value was “responded” and the “Hill Slope TAS2R43 human” value stood at 0.8. Further, on cat Tas2r43 [2], the “calcium flux response of cat Tas2r43” value was “responded” and the “Hill Slope Tas2r43 cat” value was 1.0. The “fold more sensitive, human TAS2R43 vs cat Tas2r43” value at cat Tas2r43 [2] (from EC50 values) is “about 10 fold”. The half-maximal effective concentration (EC50) at human TAS2R43 [3] is 1.2 µM.

For the molecule `CCCC(=O)N[C@H]1CCOC1=O` [C4-HSL], the “calcium flux response of human TAS2R16” value at human TAS2R16 is “no response”. In addition, the “calcium flux response of human TAS2R38” value at human TAS2R38 [4] was “responded weakly but specifically”. In addition, the “calcium flux response of cat Tas2r38” value at cat Tas2r38 is “responded weakly but specifically”. The “calcium flux response of human TAS2R43” value on human TAS2R43 [1] is “no response”.
